Experimental data: ChEMBL document CHEMBL5120792, “Nyuzenamide C, an Antiangiogenic Epoxy Cinnamic Acid-Containing Bicyclic Peptide from a Riverine Streptomyces sp” (J Nat Prod, 2022)
pIC50: −log10 of the molar value.

Columns and labels:
HUVEC = assay: Antiangiogenic activity in HUVEC assessed as inhibition of VEGF-induced capillary tube formation incubated for 6 hrs by capillary tube formation assay; type: functional, cell-based; conditions: Homo sapiens
Hepa1c1c7 = assay: Activation of QR in mouse Hepa1c1c7 cells assessed as increase in QR activity at 20 uM incubated for 24 hrs by NADPH-dependent menadiol-mediated reduction of MTT based assay relative to control; type: cell-based; conditions: filed as activator

CCN(CC)CCNC(=O)c1c(C)[nH]c(/C=C2\C(=O)Nc3ccc(F)cc32)c1C [SUNITINIB] gave a pIC50 (HUVEC) of 5.68.

In the case of CC(C)C[C@H]1NC(=O)[C@@H]2CCCN2C(=O)[C@H]([C@@H](O)c2ccccc2)NC(=O)CNC(=O)[C@H](C(C)C)NC(=O)[C@H]2NC(=O)[C@@H](NC(=O)/C=C/c3ccccc3[C@H]3O[C@@H]3C)[C@@H](C)OC(=O)[C@@H](CC(N)=O)NC(=O)[C@H](NC(=O)[C@H](O)NC1=O)[C@@H](O)c1ccc(O)c(c1)Oc1ccc2cc1, the fold change (FC) (Hepa1c1c7) was 1.8 and the pIC50 (HUVEC) was 5.05.
